Results on one compound are retold here after ChEMBL document CHEMBL2176918, “Design and optimization of pyrazinecarboxamide-based inhibitors of diacylglycerol acyltransferase 1 (DGAT1) leading to a clinical candidate dimethylpyrazinecarboxamide phenylcyclohexylacetic acid (AZD7687)” (J Med Chem, 2012).

Data set [1] concerns the target T1, Diacylglycerol O-acyltransferase 2 (Homo sapiens, UniProt Q96PD7).
T1 sequence (Q96PD7 whole entry): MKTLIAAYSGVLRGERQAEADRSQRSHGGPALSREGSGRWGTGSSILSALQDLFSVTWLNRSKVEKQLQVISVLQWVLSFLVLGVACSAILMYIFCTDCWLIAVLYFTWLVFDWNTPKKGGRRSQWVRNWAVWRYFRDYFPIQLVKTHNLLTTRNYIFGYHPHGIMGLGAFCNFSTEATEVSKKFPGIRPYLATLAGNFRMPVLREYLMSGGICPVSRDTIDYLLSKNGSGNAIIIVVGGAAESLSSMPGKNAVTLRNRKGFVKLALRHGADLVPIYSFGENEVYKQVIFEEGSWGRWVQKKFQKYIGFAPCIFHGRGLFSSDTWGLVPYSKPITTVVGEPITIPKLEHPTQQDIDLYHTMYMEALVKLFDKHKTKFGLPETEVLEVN
Description: Inhibition of human DGAT2 by liquid scintillography.

Data set [2] has as its target cAMP and cAMP-inhibited cGMP 3',5'-cyclic phosphodiesterase 10A (Homo sapiens, UniProt Q9Y233). Briefly: Inhibition of PDE10A1 […].
Data set [3] deals with Voltage-gated inwardly rectifying potassium channel KCNH2 (Homo sapiens, UniProt Q12809). Description: Inhibition of human ERG.
Chain of Voltage-gated inwardly rectifying potassium channel KCNH2 (Q12809 whole entry): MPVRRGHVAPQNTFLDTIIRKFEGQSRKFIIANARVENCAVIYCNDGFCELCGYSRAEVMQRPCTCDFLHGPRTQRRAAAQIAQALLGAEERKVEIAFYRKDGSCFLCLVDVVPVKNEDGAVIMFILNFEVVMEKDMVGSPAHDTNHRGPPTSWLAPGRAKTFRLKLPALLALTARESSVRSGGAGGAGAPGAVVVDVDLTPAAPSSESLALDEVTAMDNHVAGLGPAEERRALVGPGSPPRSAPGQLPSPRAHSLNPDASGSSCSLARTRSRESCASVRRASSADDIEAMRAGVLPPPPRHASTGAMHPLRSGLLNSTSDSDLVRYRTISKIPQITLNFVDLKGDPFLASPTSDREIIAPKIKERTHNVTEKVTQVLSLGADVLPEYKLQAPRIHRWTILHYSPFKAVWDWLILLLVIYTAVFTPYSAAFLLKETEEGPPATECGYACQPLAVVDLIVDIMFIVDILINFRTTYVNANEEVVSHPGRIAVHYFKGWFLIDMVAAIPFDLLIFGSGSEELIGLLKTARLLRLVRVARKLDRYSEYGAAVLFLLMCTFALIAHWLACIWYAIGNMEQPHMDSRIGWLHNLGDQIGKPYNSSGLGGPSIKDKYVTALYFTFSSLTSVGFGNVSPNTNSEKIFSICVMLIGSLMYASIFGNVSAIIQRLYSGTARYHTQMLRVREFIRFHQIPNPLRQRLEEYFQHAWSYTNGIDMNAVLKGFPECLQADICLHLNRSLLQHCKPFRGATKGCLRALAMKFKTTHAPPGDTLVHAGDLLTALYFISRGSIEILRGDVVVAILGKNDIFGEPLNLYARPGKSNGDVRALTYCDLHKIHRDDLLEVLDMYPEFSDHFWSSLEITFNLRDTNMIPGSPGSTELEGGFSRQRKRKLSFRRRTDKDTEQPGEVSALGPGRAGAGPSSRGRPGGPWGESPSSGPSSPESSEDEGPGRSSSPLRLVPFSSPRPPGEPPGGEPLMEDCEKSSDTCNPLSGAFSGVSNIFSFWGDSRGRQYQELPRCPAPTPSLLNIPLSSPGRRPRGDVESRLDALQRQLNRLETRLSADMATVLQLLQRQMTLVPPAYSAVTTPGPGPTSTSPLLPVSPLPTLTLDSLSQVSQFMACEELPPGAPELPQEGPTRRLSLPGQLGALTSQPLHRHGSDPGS
A short description of data set [4]: Clearance in Han-Wistar rat at 5.4 uM/kg, po or 2.7 uM/kg, iv. It counts as ADME, organism-based. The settings on record: in vivo.
Data set [5] deals with Cytochrome P450 2C19 (Homo sapiens, UniProt P33261). Description: Inhibition of CYP2C19. Format: ADME.
Chain of Cytochrome P450 2C19 (P33261 whole entry): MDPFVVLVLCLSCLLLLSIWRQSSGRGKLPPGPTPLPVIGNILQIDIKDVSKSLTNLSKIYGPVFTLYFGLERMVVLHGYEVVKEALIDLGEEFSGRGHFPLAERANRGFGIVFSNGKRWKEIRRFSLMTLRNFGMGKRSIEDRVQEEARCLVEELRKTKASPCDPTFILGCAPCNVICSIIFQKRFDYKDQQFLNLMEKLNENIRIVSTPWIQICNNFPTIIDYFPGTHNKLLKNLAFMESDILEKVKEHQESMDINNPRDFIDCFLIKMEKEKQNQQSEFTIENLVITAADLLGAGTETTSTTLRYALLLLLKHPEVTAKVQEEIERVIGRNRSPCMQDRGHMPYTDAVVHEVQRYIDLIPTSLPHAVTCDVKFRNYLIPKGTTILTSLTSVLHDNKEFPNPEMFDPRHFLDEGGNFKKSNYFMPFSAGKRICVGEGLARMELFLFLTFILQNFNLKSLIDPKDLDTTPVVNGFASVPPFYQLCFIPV
Data set [6] in a line: Volume of distribution in Beagle dog at 27.2 uM/kg, po or 1.4 uM/kg, iv. Format: ADME, organism-based, Canis lupus familiaris. The conditions noted are these: in vivo.
For data set [7], the target named is T2, O-acyltransferase (Canis lupus familiaris, UniProt A0A8I3N393).
T2 sequence (A0A8I3N393 whole entry): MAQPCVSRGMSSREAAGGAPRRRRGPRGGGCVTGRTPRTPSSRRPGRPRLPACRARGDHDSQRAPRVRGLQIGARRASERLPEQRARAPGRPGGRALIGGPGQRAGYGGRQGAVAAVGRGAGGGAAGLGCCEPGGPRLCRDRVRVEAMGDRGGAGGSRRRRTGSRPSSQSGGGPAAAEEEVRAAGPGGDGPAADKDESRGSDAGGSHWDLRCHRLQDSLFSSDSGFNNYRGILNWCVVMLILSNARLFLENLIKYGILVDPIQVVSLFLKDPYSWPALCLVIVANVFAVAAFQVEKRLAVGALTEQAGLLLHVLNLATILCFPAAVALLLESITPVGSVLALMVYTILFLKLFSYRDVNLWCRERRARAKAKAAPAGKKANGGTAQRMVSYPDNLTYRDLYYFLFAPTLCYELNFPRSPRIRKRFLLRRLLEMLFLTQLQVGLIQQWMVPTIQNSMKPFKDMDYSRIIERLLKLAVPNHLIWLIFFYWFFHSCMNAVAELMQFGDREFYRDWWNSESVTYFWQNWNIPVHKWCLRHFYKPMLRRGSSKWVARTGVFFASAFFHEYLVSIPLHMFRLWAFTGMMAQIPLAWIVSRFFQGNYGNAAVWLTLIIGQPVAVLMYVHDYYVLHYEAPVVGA
Description: Inhibition of DGAT1 in dog liver microsomes. Set-up: species or system Microsome. Background: Microsomes from liver hold many membrane-bound enzymes, among them those of drug oxidation.

Data set [8] addresses T3, Sterol O-acyltransferase 2 (Homo sapiens, UniProt O75908).
T3 sequence (O75908 whole entry): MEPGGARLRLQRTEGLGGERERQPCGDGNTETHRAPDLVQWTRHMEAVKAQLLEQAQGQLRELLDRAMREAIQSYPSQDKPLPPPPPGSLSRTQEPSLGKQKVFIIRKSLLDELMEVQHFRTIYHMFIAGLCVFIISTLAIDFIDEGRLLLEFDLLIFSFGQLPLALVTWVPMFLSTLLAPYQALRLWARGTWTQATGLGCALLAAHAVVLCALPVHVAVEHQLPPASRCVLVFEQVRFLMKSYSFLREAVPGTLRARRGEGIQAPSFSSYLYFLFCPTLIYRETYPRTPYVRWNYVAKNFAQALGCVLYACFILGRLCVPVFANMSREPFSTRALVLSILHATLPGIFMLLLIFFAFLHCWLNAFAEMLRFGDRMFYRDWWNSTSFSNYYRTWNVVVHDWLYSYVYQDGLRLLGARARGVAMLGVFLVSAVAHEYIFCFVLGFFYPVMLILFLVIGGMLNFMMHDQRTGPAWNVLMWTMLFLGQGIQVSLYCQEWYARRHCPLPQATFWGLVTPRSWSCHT
Description: Inhibition of human ACAT2 by liquid scintillography.

Data set [9] addresses Cytochrome P450 2C9 (Homo sapiens, UniProt P11712). Description: Inhibition of CYP2C9. It counts as ADME.
Data set [10] is described as follows: Fraction unbound in mouse plasma. It counts as ADME, cell-free.
The nature of data set [11]: Apparent permeability from apical to basolateral side in MDCK cells at pH 7.4. The settings on record: dog.
A short description of data set [12]: Half life in Han-Wistar rat at 2.54 to 5.4 uM/kg, po. Format: ADME, organism-based. The settings on record: in vivo.
Data set [13] deals with T4, Diacylglycerol O-acyltransferase 1 (Mus musculus, UniProt Q9Z2A7).
T4 sequence (Q9Z2A7 whole entry): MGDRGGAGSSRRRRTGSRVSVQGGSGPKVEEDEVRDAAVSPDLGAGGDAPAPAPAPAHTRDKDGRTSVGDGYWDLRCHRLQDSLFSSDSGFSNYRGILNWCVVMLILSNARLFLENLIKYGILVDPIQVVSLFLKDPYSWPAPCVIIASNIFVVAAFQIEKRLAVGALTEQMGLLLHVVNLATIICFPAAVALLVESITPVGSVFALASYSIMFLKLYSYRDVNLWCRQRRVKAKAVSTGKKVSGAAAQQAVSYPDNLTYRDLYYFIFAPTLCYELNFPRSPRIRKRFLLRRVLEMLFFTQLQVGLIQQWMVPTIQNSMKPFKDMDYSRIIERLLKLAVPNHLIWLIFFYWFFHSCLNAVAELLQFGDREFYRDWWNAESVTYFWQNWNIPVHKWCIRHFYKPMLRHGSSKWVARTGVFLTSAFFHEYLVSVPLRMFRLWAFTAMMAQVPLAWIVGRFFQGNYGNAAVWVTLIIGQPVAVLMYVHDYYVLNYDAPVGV
Briefly: Inhibition of DGAT1 in mouse liver microsomes. Set-up: species or system Microsome.

A short description of data set [14]: Fraction unbound in human plasma at 37 degC by LC-UV/MS method based equilibrium dialysis method. On the technique in general: Equilibrium dialysis compares concentrations on both sides of a semipermeable membrane.

Usually IC50 stands for the concentration that gives 50% inhibition. A high value points to weaker potency in that assay. As a reminder, the fraction unbound is free concentration divided by total concentration. Read a low fraction unbound as extensive binding. The Papp A→B is how fast a substance crosses the layer from the apical side. By half-life is commonly meant the time in which the quantity being followed falls by half. High values mean slow decline, low ones rapid decline.

Chain of cAMP and cAMP-inhibited cGMP 3',5'-cyclic phosphodiesterase 10A (Q9Y233 whole entry): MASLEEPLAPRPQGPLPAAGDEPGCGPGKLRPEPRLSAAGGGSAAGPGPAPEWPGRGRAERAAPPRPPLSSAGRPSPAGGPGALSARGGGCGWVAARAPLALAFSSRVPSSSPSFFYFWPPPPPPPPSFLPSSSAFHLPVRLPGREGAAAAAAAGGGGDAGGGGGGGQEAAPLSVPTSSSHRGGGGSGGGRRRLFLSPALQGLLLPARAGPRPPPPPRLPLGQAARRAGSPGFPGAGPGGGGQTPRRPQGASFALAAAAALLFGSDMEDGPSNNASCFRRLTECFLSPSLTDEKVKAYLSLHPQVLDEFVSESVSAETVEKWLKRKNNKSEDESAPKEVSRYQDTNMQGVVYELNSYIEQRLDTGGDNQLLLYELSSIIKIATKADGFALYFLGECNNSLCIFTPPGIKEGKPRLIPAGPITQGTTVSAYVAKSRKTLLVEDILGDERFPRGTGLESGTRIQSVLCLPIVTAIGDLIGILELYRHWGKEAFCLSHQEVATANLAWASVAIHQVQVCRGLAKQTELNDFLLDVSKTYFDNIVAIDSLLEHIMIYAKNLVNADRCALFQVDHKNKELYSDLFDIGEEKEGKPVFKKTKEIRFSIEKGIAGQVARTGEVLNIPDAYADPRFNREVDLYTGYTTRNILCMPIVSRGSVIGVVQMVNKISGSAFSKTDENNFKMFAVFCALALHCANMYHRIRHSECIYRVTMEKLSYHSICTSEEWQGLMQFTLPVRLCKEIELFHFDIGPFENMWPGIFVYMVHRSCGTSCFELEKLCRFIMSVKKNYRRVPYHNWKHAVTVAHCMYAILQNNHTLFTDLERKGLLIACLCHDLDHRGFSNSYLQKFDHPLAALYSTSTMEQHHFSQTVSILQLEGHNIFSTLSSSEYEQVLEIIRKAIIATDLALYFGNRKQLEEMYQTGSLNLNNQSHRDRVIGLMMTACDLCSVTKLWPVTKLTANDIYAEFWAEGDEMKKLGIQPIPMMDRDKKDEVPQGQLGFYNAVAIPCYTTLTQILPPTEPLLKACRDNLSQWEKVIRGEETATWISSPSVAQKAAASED
Chain of Cytochrome P450 2C9 (P11712 whole entry): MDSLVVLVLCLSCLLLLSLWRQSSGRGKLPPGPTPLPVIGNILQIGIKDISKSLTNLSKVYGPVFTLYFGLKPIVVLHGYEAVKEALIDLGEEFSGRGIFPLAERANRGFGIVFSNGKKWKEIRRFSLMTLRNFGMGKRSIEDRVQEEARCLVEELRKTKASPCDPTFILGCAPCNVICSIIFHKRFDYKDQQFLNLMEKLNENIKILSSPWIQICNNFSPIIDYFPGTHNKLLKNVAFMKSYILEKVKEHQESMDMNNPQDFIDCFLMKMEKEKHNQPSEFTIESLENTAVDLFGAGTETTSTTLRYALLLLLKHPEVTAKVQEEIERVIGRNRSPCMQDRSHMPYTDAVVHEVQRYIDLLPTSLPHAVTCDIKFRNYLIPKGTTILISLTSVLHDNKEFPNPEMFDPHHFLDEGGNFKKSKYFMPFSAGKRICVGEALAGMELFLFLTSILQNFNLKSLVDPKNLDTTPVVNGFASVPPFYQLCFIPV

Regarding `Cc1nc(C)c(-c2ccc(C3CCC(CC(=O)O)CC3)cc2)nc1C(N)=O` (centres undefined) [AZD-7687], the 50% inhibitory concentration (IC50) in [1] was > 300 µM; in data set [2], 5.5 µM; in [3], > 32 µM; in data set [5], > 30 µM; in data set [7], 60 nM; in data set [8], > 10 µM. Further, the IC50 in data set [9] was > 30 µM; in [13], 100 nM. In [4], the clearance is 0.5 mL/min/kg. This compound also came in with a Vd in data set [6] of 1 L/kg. For the same compound, the figures for the fraction unbound in data set [10] and in data set [14] were 0.1 and 0.047, respectively. In addition, in data set [11], the Papp A→B turned out to be 12 ×10⁻⁶ cm/s. The half-life in data set [12] is 840 min.
